Experimental findings from patent publication US20240174693A1, “SOMATOSTATIN RECEPTOR SUBTYPE 4 (SSTR4) AGONISTS AND THEIR APPLICATIONS” (Humanwell Pharmaceutical US, priority 2022, published 2024) are described below.

Data set [1] concerns the target T1, CYP2D6 (Homo sapiens, UniProt P10635).
T1 construct: from tissue; host or cells: liver microsomes (HLM)
The data set can be described thus: CYP inhibition in HLM, CYP2D6. To be noted: read-out: CYP inhibition (IC50 um) 2D6. Type of data set: in vitro ADME. As for the experimental part: (§1) 0.1 M potassium phosphate buffer (K-buffer), pH 7.4 was preheated. K-buffer was prepared by mixing 9.5 mL Stock A into 40.5 mL Stock B. The total volume was brought to 500 mL with Milli-Q water. The buffer was titrated with KOH or H3PO4 to pH 7.4. Stock A (1 M monobasic potassium phosphate) was prepared by adding 136.5 g of monobasic potassium phosphate into 1 L of Milli-Q water. Stock B (1 M dibasic potassium phosphate) was prepared by adding 174.2 g of dibasic potassium phosphate in 1 L of Milli-Q water.
(§2) Serial dilution for test compound and reference inhibitors (400×) was prepared in a 96-well plate. 8 μL of 10 mM test compounds was transferred to 12 μL of ACN. Inhibitor spiking solution was prepared for CYP1A2, CYP2C9 and CYP2D6 in cocktail by adding 12 μL of 1 mM α-Naphthoflavon, 10 μL of 40 mM Sulfaphenazole, 10 μL of 10 mM Quinidine, and 8 μL of DMSO. Individual inhibitor spiking solution for CYP3A4 and CYP2C19 was prepared by adding 8 μL of DMSO stock to 12 μL of ACN. 1:3 serial dilutions were performed in DMSO:ACN mixture (v/v: 40:60).
(§3) NADPH cofactor was prepared by dissolving 66.7 mg NADPH in 10 mL 0.1 M K-buffer, pH7.4. 4×substrate (2 mL for each isoform) was prepared. HLM was added were required on ice. 0.2 mg/mL HLM solution was prepared using 10 μL of 20 mg/mL to 990 μL of 0.1 M K-buffer on ice. 400 μL of 0.2 mg/mL HLM were added to the assay wells and then 2 μL of 400×test compound set were added into the designated wells on ice. 200 μL of 0.2 mg/mL HLM was added to the assay wells and followed by 1 μL of serially diluted reference inhibtor solution into the designated wells on ice. The following solutions were added in duplicated in a 96-well plate on ice: 30 μL of 2×test compound and reference compound in 0.2 mg/mL HLM solution and 15 μL of 4×substrate solution. The 96-well assay plate and NADPH solution were pre-incubated at 37° C. for 5 minutes. 15 μL of pre-warmed 8 mM NADPH solution was added to into the assay plates to initiate the reaction. The assay plate was incubated at 37° C. 5 mins, 10 mins, and 45 mins. […]

Data set [2] can be described thus: Log D octanol / potassium phosphate buffer. Type of data set: physicochemical. To be noted: octanol / potassium phosphate buffer (pH 7.4), 25° C. As for the experimental part:
10 μL of 10 mM stock solutions were placed into a 96-well plate. 300 μL of octanol into the plate was added to the plate. The plate was sealed and agitated on a plate shaker for 5 minutes. The plate was centrifuged at 2000 rpm for 5 minutes. The seal was removed and 600 μL of potassium phosphate buffer (pH 7.4) was added. The plate was sealed, and the two phases were mixed on the plate shaker vigorously for 1 hour at 25° C. The plate was centrifuged at 2000 rpm for 5 minutes after mixing and the seal was removed. 10 μL of water phase samples from the water phase plate was aspirated and mixed with 10 μL of water (1:2 dilution). 180 μL of 50% Ethanol was added into the water phase sample plate (1:10 dilution) to achieve 1:20 dilution. 50 μL of water phase sample was mixed with 100 μL of 50% Ethanol (containing IS) into the water phase sample plate to achieve 1:60 dilution. 10 μL from the octanol phase (the upper phase) was transfered into a new 96-well plate and 190 μL 50% Ethanol (1:20 dilution) was added. 10 μL of 1:20 diluted octanol samples were transferred into a new 96 deep-well plate and 390 μL 50% Ethanol (1:40 dilution) was added to achieve 1:800 dilution. 50 μL of 1:800 diluted octanol samples were transferred into a new 96-well plate again and 100 μL 50% ethanol with IS was added to achieve 1:2400 dilution. Samples were ready for LC/MS analysis.

Data set [3] in a line: Thermodynamic solubility. The class given is physicochemical. To be noted: aqueous buffer, thermodynamic from solid, PBS(Ph 7.4), equilibrated over night at room temperature. As for the experimental part:
Assay buffer was added into compound powder to make 4 mg/ml solution. Sample tubes were shaken for 1 hour at 1000 rpm, then equilibrated over night at room temperature. Samples were centrifuged for 10 minutes at 12000 rpm to precipitate out un-dissolved particles. Supernatants were transferred to new tubes. Concentrations of the supernatants after centrifugation were determined by LCMSMS detection.

The target of data set [4] is T2, CYP2C9 (Homo sapiens, UniProt P11712).
T2 construct: from tissue; host or cells: liver microsomes (HLM)
T2 sequence (P11712 whole entry): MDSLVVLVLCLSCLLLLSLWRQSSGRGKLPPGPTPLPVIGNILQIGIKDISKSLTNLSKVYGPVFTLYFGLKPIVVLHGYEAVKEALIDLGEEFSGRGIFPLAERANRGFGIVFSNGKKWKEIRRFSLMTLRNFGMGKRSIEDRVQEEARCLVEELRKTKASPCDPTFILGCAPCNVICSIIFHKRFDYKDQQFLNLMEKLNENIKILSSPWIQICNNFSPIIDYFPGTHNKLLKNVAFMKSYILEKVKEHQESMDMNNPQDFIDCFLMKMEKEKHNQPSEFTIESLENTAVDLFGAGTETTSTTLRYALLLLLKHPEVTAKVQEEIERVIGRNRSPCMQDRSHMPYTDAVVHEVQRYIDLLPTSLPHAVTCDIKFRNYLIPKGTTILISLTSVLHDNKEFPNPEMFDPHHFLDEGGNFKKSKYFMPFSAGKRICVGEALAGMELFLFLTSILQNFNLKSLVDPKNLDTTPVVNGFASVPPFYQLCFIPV
The data set can be described thus: CYP inhibition in HLM, CYP2C9. Type of data set: in vitro ADME. To be noted: read-out: CYP inhibition (IC50 um) 2C9. As for the experimental part:
as §1, §2, §3

The nature of data set [5]: Metabolic stability in liver microsomes (rat). The class given is in vitro ADME. Conditions: for CLint scaled at 1 μM: pH 7.4; for half-life at 1 μM: pH 7.4, read-out: Metabolic stability T½. As for the experimental part:
Buffers A-C were prepared for use in the metabolic study. The buffers were as follows: Buffer A: 1.0 L of 0.1 M monobasic Potassium Phosphate buffer containing 1.0 mM EDTA; Buffer B: 1.0 L of 0.1 M Dibasic Potassium Phosphate buffer containing 1.0 mM EDTA; and Buffer C: 0.1 M Potassium Phosphate buffer, 1.0 mM EDTA, pH 7.4 by titrating 700 mL of buffer B with buffer A while monitoring with the pH meter.
Ketanserin was used as the reference compound. Reference compound and test compound spiking solutions (500 μM spiking solution) were prepared by adding 10 μL of 10 mM DMSO stock solution into 190 μL ACN. 1.5 μL of 500 μM spiking solution (0.75 mg/mL) and 18.75 μL of 20 mg/mL liver microsomes were added into 479.75 μL of Buffer C on ice.
A 6 mM NADPH stock solution was prepared by dissolving an appropriate amount of NADPH into buffer C. 30 μL of 1.5 μM spiking solution containing 0.75 mg/mL microsomes solution was dispensed to the assay plates designated for different time points (0-, 5-, 15-, 30-, 45-min) on ice. […] All the other plates were pre-incubated at 37° C. for 5 minutes. 15 μL of 6 mM NADPH stock solution was added to the plates to start the reaction and time. At 5-min, 15-min, 30-min, and 45-min, 135 μL of ACN containing internal standard were added to the wells of corresponding plates, respectively, to stop the reaction. […]
For orientation: Liver microsomes are a subcellular fraction often used to study metabolism.

Where [6] appears, read: read-out: Thermodynamic Solubility Solubility.
[7] abbreviates: read-out: Thermodynamic Solubility Solubility (um).

Like-named read-outs stand apart in the source and are kept apart here.

T1 sequence (P10635 whole entry): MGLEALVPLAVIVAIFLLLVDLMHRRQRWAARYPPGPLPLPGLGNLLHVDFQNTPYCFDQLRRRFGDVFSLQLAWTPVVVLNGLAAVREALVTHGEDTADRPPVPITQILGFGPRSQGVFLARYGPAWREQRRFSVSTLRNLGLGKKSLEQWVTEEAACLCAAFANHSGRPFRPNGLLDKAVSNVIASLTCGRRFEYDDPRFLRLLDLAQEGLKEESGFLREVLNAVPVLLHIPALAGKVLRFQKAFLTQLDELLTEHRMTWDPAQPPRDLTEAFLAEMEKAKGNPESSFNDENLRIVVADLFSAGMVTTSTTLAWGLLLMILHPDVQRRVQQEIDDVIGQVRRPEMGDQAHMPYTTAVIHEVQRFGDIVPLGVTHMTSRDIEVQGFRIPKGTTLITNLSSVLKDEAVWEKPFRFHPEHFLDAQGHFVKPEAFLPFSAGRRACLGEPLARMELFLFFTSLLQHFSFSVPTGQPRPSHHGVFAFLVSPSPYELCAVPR

The term IC50 denotes the concentration at which inhibition is half-maximal. One may read the logD as the decadic logarithm of the distribution of all forms, ionised or not, between an organic phase and buffer at a given pH. A high value points to higher lipophilicity. What is called thermodynamic solubility is solubility found after equilibrating the solid with the medium. For orientation: CLint scaled means the capacity of the preparation to metabolise the compound, expressed as a volume cleared per time. A low value points to greater metabolic stability. For the compound `CC(C)(NC(=O)[C@H]1[C@@H]2CNC[C@H]1C2)c1ncc2c(Cl)cccn12` [Compound 7, (1R,5S,6r)-N-(2-(8-chloroimidazo[1,5-a]pyridin-3-yl)propan-2-yl)-3-azabicyclo[3.1.1]heptane-6-carboxamide], the IC50 in data set [1] and in data set [4] was above 10 µM throughout. In addition, the logD in data set [2] was -0.07. In addition, the thermodynamic solubility in data set [3] (setting [6]) was 1.68 mg/mL; in data set [3] (setting [7]) it was 4.44 mM. Moreover, in data set [5], the intrinsic metabolic clearance (CLint scaled) at 1 μM amounted to 1.11 L/h/kg. In data set [5], the half-life at 1 μM stood at 2.25 h.
Turning to `CC(C)(NC(=O)[C@H]1[C@@H]2CNC[C@H]1C2)c1ncc2c(Br)cccn12` [Compound 8, (1R,5S,6r)-N-(2-(8-bromoimidazo[1,5-a]pyridin-3-yl)propan-2-yl)-3-azabicyclo[3.1.1]heptane-6-carboxamide], the IC50 in data set [1] and in data set [4] was above 10 µM each time. Moreover, in data set [2], the logD was -0.15. Further, the thermodynamic solubility in data set [3] (setting [6]) is 2.08 mg/mL; in data set [3] (setting [7]), 4.92 mM. Besides, the CLint scaled at 1 μM in data set [5] was 0.179 L/h/kg. Besides, in data set [5], the half-life at 1 μM came out at 9.71 h.
Consider `CC(C)(NC(=O)[C@H]1[C@@H]2CNC[C@H]1C2)c1nc(C2CC2)c2ccccn12` [Compound 9, (1R,5S,6r)-N-(2-(1-cyclopropylimidazo[1,5-a]pyridin-3-yl)propan-2-yl)-3-azabicyclo[3.1.1]heptane-6-carboxamide], for which the IC50 in data set [1] and in data set [4] was above 10 µM throughout. Also, the logD in data set [2] is -0.11. In addition, the results for the thermodynamic solubility in data set [3] (setting [6]) and in data set [3] (setting [7]) were 2.25 mg/mL and 6 mM, respectively. Besides, the CLint scaled at 1 μM in data set [5] is 0.104 L/h/kg. Further, the half-life at 1 μM in data set [5] turned out to be 23.9 h.
